Starred links: 1 amine or outer side, 2 acyl side, 3 side chain; linkers in the order of their positions; H or OH if unused. Non-standard residues stand in square brackets, D forms with d. Residues, ends and D or L forms follow the SMILES beside them. Groups on a side chain read outwards from the residue. *: point of attachment. C18 diacid = O=C(O)CCCCCCCCCCCCCCCCC(=O)*; γGlu = O=C(O)[C@H](CCC(=O)[*:2])N[*:1]; AEEA = NCCOCCOCC(=O)O; Aib = CC(C)(N)C(=O)O
target: T1, human CRF2α receptor (Homo sapiens, UniProt Q13324); experiment: cAMP agonism at human CRF2 α receptor in TeloHEAC cells (Example 7); format: cell-based; conditions: cAMP HTRF, TeloHEAC cells stably expressing human CRF2 α, 0% HSA; read-out: EC50 [nM], 0% HSA
T1 construct: expressed in transfected cells; host or cells: TeloHEAC
T1 sequence (Q13324 1-411): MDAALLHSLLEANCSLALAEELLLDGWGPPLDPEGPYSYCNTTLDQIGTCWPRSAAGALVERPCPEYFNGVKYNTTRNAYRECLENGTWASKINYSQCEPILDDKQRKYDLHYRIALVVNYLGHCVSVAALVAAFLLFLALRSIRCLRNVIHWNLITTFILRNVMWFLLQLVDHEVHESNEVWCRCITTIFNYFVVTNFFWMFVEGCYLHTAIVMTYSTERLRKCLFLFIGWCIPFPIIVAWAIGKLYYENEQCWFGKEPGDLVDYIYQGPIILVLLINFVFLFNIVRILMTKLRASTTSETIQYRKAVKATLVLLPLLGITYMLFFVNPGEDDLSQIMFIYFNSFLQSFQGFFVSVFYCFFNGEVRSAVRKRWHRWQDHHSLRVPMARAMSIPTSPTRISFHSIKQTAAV
Procedure, shortened: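 Percent activation was referenced to 1000 nM UCN2 (100%), and EC50 values taken as concentrations giving half of maximal response. The read-out was a homogeneous time-resolved fluorescence cAMP kit, fluorescence ratio 665/620 nm. Thawed cells (2000/well) saw compound for 30 min at RT in buffer with 2 mM IBMX and 0%/0.1% HSA.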

EC50 [nM] | SMILES
14.3 | CC[C@H](C)[C@H](N)C(=O)N[C@H](C(=O)N[C@@H](CC(C)C)C(=O)N[C@@H](CO)C(=O)N[C@@H](CC(C)C)C(=O)N[C@@H](CC(=O)O)C(=O)N[C@H](C(=O)N1CCC[C@H]1C(=O)N[C@H](C(=O)N[C@@H](CCCCN)C(=O)N[C@@H](CC(C)C)C(=O)N[C@@H](CCCCNC(=O)COCCOCCNC(=O)COCCOCCNC(=O)CC[C@H](NC(=O)CCCCCCCCCCCCCCCCC(=O)O)C(=O)O)C(=O)N[C@@H](CCC(N)=O)C(=O)N[C@@H](CCCCN)C(=O)N[C@@H](CC(C)C)C(=O)N[C@@H](CC(C)C)C(=O)N[C@@H](CCCCN)C(=O)N[C@@H](CCC(N)=O)C(=O)N[C@@H](CCC(=O)O)C(=O)N[C@@H](CCCNC(=N)N)C(=O)N[C@@H](CCC(N)=O)C(=O)N[C@@H](CCCCN)C(=O)N[C@@H](CCCCN)C(=O)N[C@@H](CCC(N)=O)C(=O)N[C@@H](CCCNC(=N)N)C(=O)N[C@@H](CCC(=O)O)C(=O)N[C@@H](CCCCN)C(=O)N[C@@H](C)C(=O)N[C@@H](CCCCN)C(=O)N[C@H](C(=O)N[C@@H](CC(N)=O)C(=O)NC(C)(C)C(=O)N[C@@H](CCC(N)=O)C(=O)N[C@H](C(=O)N[C@@H](CC(C)C)C(=O)N[C@@H](C)C(=O)N[C@@H](CCC(N)=O)C(=O)N[C@H](C(N)=O)C(C)C)[C@@H](C)CC)[C@@H](C)O)[C@@H](C)CC)C(C)C)C(C)C [compound 91] (H-IVLSLDVPIKLK([AEEA-AEEA-γGlu-C18 diacid])QKLLKQERQKKQREKAKTN[Aib]QILAQV-NH2)
9.17 | CC[C@H](C)[C@H](N)C(=O)N[C@H](C(=O)N[C@@H](CC(C)C)C(=O)N[C@@H](CO)C(=O)N[C@@H](CC(C)C)C(=O)N[C@@H](CC(=O)O)C(=O)N[C@H](C(=O)N1CCC[C@H]1C(=O)N[C@H](C(=O)N[C@@H](CCCCN)C(=O)N[C@@H](CC(C)C)C(=O)N[C@@H](CCCCNC(=O)COCCOCCNC(=O)COCCOCCNC(=O)CC[C@H](NC(=O)CCCCCCCCCCCCCCCCC(=O)O)C(=O)O)C(=O)N[C@@H](CCC(N)=O)C(=O)N[C@@H](CCCCN)C(=O)N[C@@H](CC(C)C)C(=O)N[C@@H](CC(C)C)C(=O)N[C@@H](CCC(=O)O)C(=O)N[C@@H](CCC(N)=O)C(=O)N[C@@H](CCC(=O)O)C(=O)N[C@@H](CCCNC(=N)N)C(=O)N[C@@H](CCC(N)=O)C(=O)N[C@@H](CCCCN)C(=O)N[C@@H](CCCCN)C(=O)N[C@@H](CCC(N)=O)C(=O)N[C@@H](CCCNC(=N)N)C(=O)N[C@@H](CCC(=O)O)C(=O)N[C@@H](CCC(N)=O)C(=O)N[C@@H](C)C(=O)N[C@@H](CCC(=O)O)C(=O)N[C@H](C(=O)N[C@@H](CC(N)=O)C(=O)NC(C)(C)C(=O)N[C@@H](CCC(N)=O)C(=O)N[C@H](C(=O)N[C@@H](CC(C)C)C(=O)N[C@@H](C)C(=O)N[C@@H](CCC(N)=O)C(=O)N[C@H](C(N)=O)C(C)C)[C@@H](C)CC)[C@@H](C)O)[C@@H](C)CC)C(C)C)C(C)C [compound 92] (H-IVLSLDVPIKLK([AEEA-AEEA-γGlu-C18 diacid])QKLLEQERQKKQREQAETN[Aib]QILAQV-NH2; N-terminus assumed)
50.9 | CC[C@H](C)[C@H](N)C(=O)N[C@H](C(=O)N[C@@H](CC(C)C)C(=O)N[C@@H](CO)C(=O)N[C@@H](CC(C)C)C(=O)N[C@@H](CC(=O)O)C(=O)N[C@H](C(=O)N1CCC[C@H]1C(=O)N[C@H](C(=O)N[C@@H](CCCCN)C(=O)N[C@@H](CC(C)C)C(=O)N[C@@H](CCCCNC(=O)COCCOCCNC(=O)COCCOCCNC(=O)CC[C@H](NC(=O)CCCCCCCCCCCCCCCCC(=O)O)C(=O)O)C(=O)N[C@@H](CCC(N)=O)C(=O)N[C@@H](CCCCN)C(=O)N[C@@H](CC(C)C)C(=O)N[C@@H](CC(C)C)C(=O)N[C@@H](CCCCN)C(=O)N[C@@H](CCC(N)=O)C(=O)N[C@@H](CCC(=O)O)C(=O)N[C@@H](CCCNC(=N)N)C(=O)N[C@@H](CCC(N)=O)C(=O)N[C@@H](CCCCN)C(=O)N[C@@H](CCCCN)C(=O)N[C@@H](CCC(N)=O)C(=O)N[C@@H](CCCNC(=N)N)C(=O)N[C@@H](CCC(=O)O)C(=O)N[C@@H](CCCCN)C(=O)N[C@@H](C)C(=O)N[C@@H](CCCCN)C(=O)N[C@H](C(=O)N[C@@H](CC(N)=O)C(=O)N[C@H](C(=O)N[C@@H](CCC(N)=O)C(=O)N[C@H](C(=O)N[C@@H](CC(C)C)C(=O)N[C@@H](C)C(=O)N[C@@H](CCC(N)=O)C(=O)N[C@H](C(N)=O)C(C)C)[C@@H](C)CC)C(C)C)[C@@H](C)O)[C@@H](C)CC)C(C)C)C(C)C [compound 93] (H-IVLSLDVPIKLK([AEEA-AEEA-γGlu-C18 diacid])QKLLKQERQKKQREKAKTNVQILAQV-NH2; N-terminus assumed)

From US12679878B2, “CRF2 receptor agonists and their use in therapy” (SANOFI, priority 2020, dated 2026)
